Source: PMC4467398, “Preclinical antitumor activity of ST7612AA1: a new oral thiol-based histone deacetylase (HDAC) inhibitor” (Oncotarget, 2014)

System: DOHH2 and TMD8 DLBCL cells
Experiment: Gene expression profiling (HumanHT-12 v4 BeadChip, limma), ST7612AA1 300 nM 8 hrs vs DMSO
Format: cell-based, human
Conditions: 300 nM 8 hrs

`CC(=O)SCCCCC[C@H](NC(=O)[C@H]1CCC(=O)N1)C(=O)Nc1ccccc1` [ST7612AA1] was tested. Which “AveExpr.ST7612 FAM167A (probe ILMN_3248511)” value did it give?
The value was 7.13E-01.

And the “AveExpr.ST7612 FBXO18 (probe ILMN_1729430)” value?
Its value is 7.97E-01.

And the “AveExpr.ST7612 FCGRT (probe ILMN_1705302)” value?
Its value is 6.92E-01.

What about the “AveExpr.ST7612 FGD2 (probe ILMN_2115005)” value of the same molecule?
The value was 7.14E-01.

What about the “AveExpr.ST7612 FGF9 (probe ILMN_1762531)” value of the same molecule?
Its value is 7.84E-01.

What about the “AveExpr.ST7612 FHL1 (probe ILMN_1805842)” value of the same molecule?
Its value is 7.76E-01.

And the “AveExpr.ST7612 FLJ22795 (probe ILMN_2150802)” value?
The value was 8.56E-01.

And the “AveExpr.ST7612 FOXC1 (probe ILMN_1738401)” value?
Its value is 8.63E-01.

And the “AveExpr.ST7612 FOXO1 (probe ILMN_1738816)” value?
The value was 8.61E-01.

What about the “AveExpr.ST7612 FOXO4 (probe ILMN_1712095)” value of the same molecule?
The value was 6.93E-01.

And the “AveExpr.ST7612 FSD1 (probe ILMN_1813490)” value?
Its value is 7.25E-01.

What about the “AveExpr.ST7612 FUCA1 (probe ILMN_1752728)” value of the same molecule?
The value was 8.57E-01.

What about the “AveExpr.ST7612 G6PD (probe ILMN_1697559)” value of the same molecule?
The value was 6.93E-01.

And the “AveExpr.ST7612 GABARAPL2 (probe ILMN_1796458)” value?
The value was 7.62E-01.

What about the “AveExpr.ST7612 GAMT (probe ILMN_1756469)” value of the same molecule?
Its value is 8.74E-01.

What about the “AveExpr.ST7612 GATM (probe ILMN_1729180)” value of the same molecule?
The value was 7.75E-01.

And the “AveExpr.ST7612 GCH1 (probe ILMN_1812759)” value?
Its value is 7.11E-01.

And the “AveExpr.ST7612 GOLGB1 (probe ILMN_1747935)” value?
Its value is 7.13E-01.

What about the “AveExpr.ST7612 GPT2 (probe ILMN_1684158)” value of the same molecule?
The value was 8.12E-01.

And the “AveExpr.ST7612 GRN (probe ILMN_1724250)” value?
The value was 8.24E-01.

And the “AveExpr.ST7612 HABP4 (probe ILMN_2107991)” value?
Its value is 7.82E-01.

And the “AveExpr.ST7612 HAGH (probe ILMN_1772731)” value?
Its value is 8.84E-01.

What about the “AveExpr.ST7612 HERC1 (probe ILMN_1786211)” value of the same molecule?
The value was 7.40E-01.

And the “AveExpr.ST7612 HERPUD1 (probe ILMN_2374159)” value?
The value was 8.50E-01.

What about the “AveExpr.ST7612 HEY1 (probe ILMN_1788203)” value of the same molecule?
The value was 8.91E-01.

And the “AveExpr.ST7612 HEY2 (probe ILMN_1682034)” value?
The value was 7.56E-01.

And the “AveExpr.ST7612 HIST1H1C (probe ILMN_1757406)” value?
Its value is 8.24E-01.

What about the “AveExpr.ST7612 HIST2H2AA3 (probe ILMN_2144426)” value of the same molecule?
Its value is 8.03E-01.

What about the “AveExpr.ST7612 HLA-DPA1 (probe ILMN_1772218)” value of the same molecule?
Its value is 8.12E-01.

What about the “AveExpr.ST7612 HLA-DQA1 (probe ILMN_1808405)” value of the same molecule?
Its value is 8.25E-01.

What about the “AveExpr.ST7612 HLA-DRB4 (probe ILMN_1752592)” value of the same molecule?
Its value is 7.27E-01.

What about the “AveExpr.ST7612 HLA-E (probe ILMN_1765258)” value of the same molecule?
Its value is 8.07E-01.

And the “AveExpr.ST7612 HLTF (probe ILMN_1673820)” value?
Its value is 7.48E-01.

And the “AveExpr.ST7612 HOOK2 (probe ILMN_1682147)” value?
Its value is 7.36E-01.

And the “AveExpr.ST7612 HSPA1B (probe ILMN_1660436)” value?
Its value is 7.16E-01.

And the “AveExpr.ST7612 ID1 (probe ILMN_1664861)” value?
Its value is 7.75E-01.

What about the “AveExpr.ST7612 IFFO1 (probe ILMN_2348268)” value of the same molecule?
Its value is 8.07E-01.

What about the “AveExpr.ST7612 IGSF3 (probe ILMN_1704353)” value of the same molecule?
The value was 8.50E-01.

What about the “AveExpr.ST7612 ITGB1 (probe ILMN_1714820)” value of the same molecule?
The value was 7.06E-01.

What about the “AveExpr.ST7612 ITPKA (probe ILMN_1776516)” value of the same molecule?
Its value is 7.10E-01.

What about the “AveExpr.ST7612 JAK1 (probe ILMN_1793384)” value of the same molecule?
The value was 7.91E-01.

What about the “AveExpr.ST7612 KLHL5 (probe ILMN_1706687)” value of the same molecule?
The value was 8.05E-01.

What about the “AveExpr.ST7612 KLRAQ1 (probe ILMN_3271092)” value of the same molecule?
The value was 7.11E-01.

What about the “AveExpr.ST7612 LCMT1 (probe ILMN_1688452)” value of the same molecule?
Its value is 7.21E-01.

What about the “AveExpr.ST7612 LCMT1 (probe ILMN_2336186)” value of the same molecule?
The value was 7.52E-01.

What about the “AveExpr.ST7612 LMNA (probe ILMN_1737394)” value of the same molecule?
The value was 7.98E-01.

And the “AveExpr.ST7612 LOC151162 (probe ILMN_3238058)” value?
Its value is 7.72E-01.

What about the “AveExpr.ST7612 LOC253039 (probe ILMN_3236498)” value of the same molecule?
Its value is 8.10E-01.

What about the “AveExpr.ST7612 LOC283683 (probe ILMN_1659327)” value of the same molecule?
The value was 8.30E-01.

And the “AveExpr.ST7612 LOC388588 (probe ILMN_1749834)” value?
Its value is 7.07E-01.

What about the “AveExpr.ST7612 LOC654191 (probe ILMN_1762308)” value of the same molecule?
The value was 7.84E-01.

And the “AveExpr.ST7612 LOC727935 (probe ILMN_1691616)” value?
The value was 7.14E-01.

And the “AveExpr.ST7612 LOC728014 (probe ILMN_1711699)” value?
Its value is 8.58E-01.

What about the “AveExpr.ST7612 LOC729495 (probe ILMN_3297510)” value of the same molecule?
Its value is 7.45E-01.

What about the “AveExpr.ST7612 LOC730101 (probe ILMN_3305735)” value of the same molecule?
The value was 7.41E-01.

What about the “AveExpr.ST7612 LOC730415 (probe ILMN_3228688)” value of the same molecule?
Its value is 6.95E-01.

And the “AveExpr.ST7612 LOC731314 (probe ILMN_1785756)” value?
The value was 8.31E-01.

What about the “AveExpr.ST7612 LOC100128163 (probe ILMN_3182893)” value of the same molecule?
Its value is 7.83E-01.

What about the “AveExpr.ST7612 LOC100131727 (probe ILMN_3292990)” value of the same molecule?
Its value is 7.73E-01.

What about the “AveExpr.ST7612 LOC100133583 (probe ILMN_3214389)” value of the same molecule?
Its value is 8.94E-01.

What about the “AveExpr.ST7612 LOC100133678 (probe ILMN_3249667)” value of the same molecule?
The value was 8.11E-01.

What about the “AveExpr.ST7612 LOC100134361 (probe ILMN_3241081)” value of the same molecule?
Its value is 8.59E-01.

And the “AveExpr.ST7612 LRCH4 (probe ILMN_2157075)” value?
Its value is 8.54E-01.

What about the “AveExpr.ST7612 LRRC1 (probe ILMN_1755383)” value of the same molecule?
The value was 7.83E-01.

And the “AveExpr.ST7612 LTA4H (probe ILMN_1690342)” value?
Its value is 7.50E-01.

What about the “AveExpr.ST7612 LYRM5 (probe ILMN_1744534)” value of the same molecule?
Its value is 7.90E-01.

What about the “AveExpr.ST7612 LYSMD4 (probe ILMN_2159859)” value of the same molecule?
The value was 6.95E-01.

What about the “AveExpr.ST7612 MAP1LC3B (probe ILMN_1703244)” value of the same molecule?
Its value is 7.73E-01.

What about the “AveExpr.ST7612 MAP2K1 (probe ILMN_1694240)” value of the same molecule?
Its value is 7.15E-01.

And the “AveExpr.ST7612 MAPRE2 (probe ILMN_1695276)” value?
The value was 7.72E-01.

And the “AveExpr.ST7612 MARCKSL1 (probe ILMN_1714433)” value?
Its value is 8.47E-01.

And the “AveExpr.ST7612 MAST3 (probe ILMN_1738749)” value?
The value was 7.21E-01.

What about the “AveExpr.ST7612 MNS1 (probe ILMN_2157240)” value of the same molecule?
Its value is 7.07E-01.

And the “AveExpr.ST7612 MTE (probe ILMN_2136089)” value?
Its value is 8.56E-01.

And the “AveExpr.ST7612 MYBL1 (probe ILMN_3241046)” value?
Its value is 7.69E-01.
